A melting point compilation (Tetko et al.; mined from patent text by program, amines drawn as free bases though some values may be those of a salt)

SMILES	melting point [°C]
COc1ccc(-c2nnc3c4ccccc4c(Nc4ccc(NC(=O)c5ccccn5)cc4)nn23)cc1	301 to 305
CS(=O)(=O)OCC(c1ccccc1)c1ccccc1	101 to 102
CCS(=O)(=O)NCc1cccc(-c2nc(=O)c3ccccc3s2)n1	170 to 171
CCCCCC(=N)NC(=S)Nc1ccc(Cl)cc1	100 to 102
O=[N+]([O-])c1cnccc1-c1ccc(Cl)cc1	74 to 76
COC(=O)c1ccc(-c2ccc(-c3ccccc3)c(OS(=O)(=O)C(F)(F)F)c2)cc1	95
COC(=O)C1CC(=NO)c2c(Cl)cc(Cl)cc2N1 (stereo unspecified)	216 to 217
Cc1cc(Cn2c(-c3ccccc3)nc(Cl)c2CC(=O)O)ccc1OCc1ccccc1	177 to 178
O=C1CC(ON(Cc2ccccc2)Cc2ccccc2)C(=O)N1c1ccccc1 (stereo unspecified)	91 to 93
O=C(O)COc1cc(Br)c2oc3cccc(F)c3c(=O)c2c1	220 to 223
CCCC(=O)COS(=O)(=O)c1c(C)cc(C)c(C)c1C	49 to 50
CC(C)c1ocnc1C(=O)O	136 to 137
CC(C)(C=C(Br)Br)C(=O)Nc1ccc(Cl)cc1	104
COc1ccc(N2CCN(c3ccc(-n4cn[nH]c4=O)cc3)CC2)cc1	300
O=C(CCCOc1ccc2nc3[nH]c(=O)[nH]c3cc2c1)N1CCCCC1	284 to 286
O=C(Nc1ccccc1)C1=C(C(F)(F)F)S(=O)(=O)CCS1(=O)=O	105 to 108
COc1cc2c(cc1OC)C(CSc1nnnn1C)NCC2 (stereo unspecified)	96 to 99
CC(C)NC(=O)CCC(=O)c1ccccc1	118 to 121
O=C1Cc2cc(C(=O)[C@H]3CC[C@H]3C(=O)O)ccc2N1 (relative stereo)	211 to 212
CC1(C)OC(C)(C)C(=NO)C1=NO	252
CCCOc1ccc(-c2ccc3c(c2)C=C(C(=O)Nc2ccc(CN(C)C4CCOCC4)cc2)CCS3(=O)=O)cc1OCC	203 to 205
Cc1ccc(-c2ccc(C(=O)Nc3cc4ncc(CN5CCCC5)cc4cc3C)cc2)cc1	191 to 193
CCOC(=O)C1=C(C)NC(C)=C(C(=O)OCCN2CCN(C(c3ccccc3)c3ccccc3)CC2)C1c1cccc([N+](=O)[O-])c1 (stereo unspecified)	80 to 82
CCC(CC)Nc1cc(C)nc(Cl)c1[N+](=O)[O-]	82 to 84
CCN(CC)CC1CCCCN1CCNC(=O)N1c2cccnc2NC(=O)c2c1c(C)nn2C (stereo unspecified)	138 to 139
CCON=C(CC)C1=C(O)CC(c2ccc3c(c2)NC(=O)C(C)O3)CC1=O (stereo unspecified)	144 to 146

SMILES	melting point [°C]
CC(C)c1ccc(N(Cc2cn[nH]c2)C(=O)C2CCCc3c(O)cccc32)cc1 (stereo unspecified)	247
CC12CCC(=O)C=C1CCC1C2CCC2(C)C1CCC2(OC=O)C(=O)CCl (stereo unspecified)	202
Cc1noc(NS(=O)(=O)c2ccccc2-c2ccc(CC(C)C)cc2CNC=O)c1C	78 to 83
Nc1cc(O)c2c(c1)C(=O)c1cccc(O)c1C2=O	250 to 252
Cc1nc(-c2cc(C)c(OCCCc3cnc(C)s3)c(C)c2)no1	60 to 62
CC(=O)CC(=O)NC1CC(C)(C)NC(C)(C)C1	115
CC1(C)CCCC(=Cc2ccc(Cl)cc2)C1(O)Cn1cncn1 (stereo unspecified)	179
CN1CC(C(=O)COC(=O)c2cccnc2)CC2c3cccc4[nH]cc(c34)CC21 (stereo unspecified)	172 to 174
CCOC(=O)C(=O)Nc1ccc(NC(=O)C(=O)OCC)cc1	214 to 217
N#Cc1cc(-c2ncccc2C(=O)O)ccc1OCCc1ccccc1[N+](=O)[O-]	216 to 217
O=C(Cc1ccc(F)cc1)N1C(=O)OC[C@@H]1Cc1ccccc1	64 to 66
CCO/C(=C\c1ccc(C#N)cc1)C(=O)O	171 to 172
CNC(=NS(=O)(=O)C(F)(F)F)SC	88 to 89
CC(C(N)=O)c1ccc2c(c1)C(=O)Cc1ccc(Cl)cc1S2 (stereo unspecified)	207 to 208
CCOc1ccc(OCC(C)(NS(=O)(=O)Cc2ccccc2)C(=O)N(C)OC)cc1 (stereo unspecified)	179 to 181
Cc1c(-c2ccnnc2)ssc1=S	146
CC(=O)Nc1nc(CCc2ccc(NC(=O)OC(C)(C)C)cc2)c(C(=O)NCc2ccc(S(C)(=O)=O)cc2)s1	192 to 193
Nc1ccc(C(=O)c2ccncc2)cc1	152
CN(C)C(N)=Nc1cc(C(F)(F)F)ccc1N1CCOCC1	132 to 135
C=CC[C@@H]1C(=O)OC[C@@H]1O[Si](C)(C)C(C)(C)C	48
CCOC(=O)c1cn(-c2ccc(F)c(NC(C)(C)C)n2)c2c(Br)c(F)c(F)cc2c1=O	192 to 195
O=C1C=C(c2ccccc2C(F)(F)F)CO1	49 to 50
CC(C)C[C@@H](C(=O)NCCCC(c1ccc(F)cc1)c1ccc(F)cc1)N1CCCCC1	52 to 70
CCN1C(=O)Cc2cc(Cl)cnc21	78 to 82
CN(C)C(=O)Cc1cccc(C(=O)c2ccccc2)c1N	123 to 124
Cc1ccc(/C=C/C2=CCN(Cc3ccc(Cl)cc3)CC2)cc1	122 to 124

SMILES	melting point [°C]
COC(=O)/C(C#N)=C/c1ccccc1	90 to 91
COc1ccc(-c2ccc(S(=O)(=O)NCc3ccccn3)nc2)cc1	150
Cc1[nH]cnc1CSCCNC1=C([N+](=O)[O-])CCN1	208
COC(=O)n1c(Br)c(Br)c(C#N)c1Br	120 to 122
CCOC(=O)OC1=C([C@H]2CC[C@H](c3ccc(Cl)cc3)CC2)C(=O)c2ccccc2C1=O	145 to 149
CN1C(=O)C(c2ccc(OC(F)F)cc2)(c2cccc(C3CC(O)C3)c2)N=C1N (stereo unspecified)	186 to 190
COc1cc(N)c(Cl)cc1C(=O)NCC1CCN(CCCCCN)CC1	60 to 63
CC(C)(C)c1cc(C2=NOC(CC(=O)Nc3ccc([N+](=O)[O-])cc3)C2)cc(C(C)(C)C)c1O (stereo unspecified)	149 to 151
CC(C)N(CC(=O)c1ccc(F)cc1)c1ccccc1	78 to 81
CCc1ccc2[nH]c(=O)oc(=O)c2c1	178 to 181
Cc1ncc(C#N)c(Nc2ccc3[nH]ccc3c2C)c1-c1cc2cc(CN3CCN(C)CC3)ccc2o1	218 to 220
Cc1oc2c(C)c(C)c(N3C(=O)c4ccccc4C3=O)c(C)c2c1-c1ccc(C(C)C)cc1	232 to 234
O=C1N(Cc2ncccc2C(F)(F)F)c2ccccc2C12COc1cc3[nH]ncc3cc12 (stereo unspecified)	152 to 154
CC(C)Oc1cc(Oc2ccc(S(C)(=O)=O)cn2)cc2cc(C3=NCC(CC(C)(C)O)S3)[nH]c12 (stereo unspecified)	151 to 153
Cc1ccc(NC(=O)c2ccc(CN3CCN(C)CC3)c(C(F)(F)F)c2)cc1NC(=O)N(C)c1cc(N)ncn1	192 to 193
CC(C)c1cc(-c2ccc(F)c3ccccc23)nc(N(S(C)(=O)=O)S(C)(=O)=O)n1	144
CCCCOC(=O)COc1ccc(C(=O)Nc2ccccc2Sc2cccc(C)c2-c2nnn[nH]2)cc1	150 to 151
CCOC1CCC2C3CCC4=CC(=O)CCC4=C3C(c3ccc(C=O)cc3)CC12C (stereo unspecified)	149 to 152
CC(=O)Nc1cccc(OCCCCC(=O)O)c1C=O	119 to 121
COCN(c1cccc2cc(-c3ncnn3C)n(COC)c12)S(=O)(=O)c1cccs1	110 to 111
CCOC(=O)Cc1c(C(=O)OCC)[nH]c2ccccc12	75 to 78
C[C@@H]1NC(=O)O[C@H]1c1ccc(C(C)(C)C)cc1	199 to 200
CCNc1nc(C#N)c(C#N)nc1-c1cccc(F)c1	126 to 127
CCOC(=O)c1cc(-c2ccc(OC)cc2)nn(Cc2ccc(Cl)cc2Cl)c1=O	136
NS(=O)(=O)C1=CC2=C(OCCO)CCSC2S1 (stereo unspecified)	110 to 113
c1ccc(-c2n[nH]c3c2sc2ccccc23)cc1	236 to 238

SMILES	melting point [°C]
CCOC(=O)C(=NOC)C(C)=NNC(=O)OC(C)(C)C	144 to 145
CC(=O)OC(C=C(C)C=CC=C(C)C=O)OC(C)=O	99.5
Cc1nc(C(=O)O)cnc1Cl	116 to 117
CCNc1ncccc1C(=O)Nc1c(C)ccnc1Cl	122 to 124
COCCN1CCc2ccc(Nc3ncc(Cl)c(N[C@@H]4CCCC[C@H]4NC(=O)C(F)(F)F)n3)cc2CC1	180 to 182
NC(=O)[C@H](NCc1ccccc1)[C@@H]1CSC(=O)N1Cc1ccccc1	194 to 195
CS(C)=Nc1nccnc1Cl	106 to 108
COCC1c2ccccc2CCN1c1nc(Nc2ccc(F)cc2)nc(C)c1C (stereo unspecified)	193 to 195
Cc1ccc(NC(=O)c2ccc3ncccc3c2)cc1NC(=O)c1ccc(OCc2ccccc2)cc1	227 to 228
O=CN1CCc2cc(O)ccc2C1	186
COc1ccc([C@@H]2CCCC[C@@H]2[N+](=O)[O-])cc1OC (racemic)	84 to 86.5
COCN1C(=O)C(=C/c2ccccc2)/C(=C\c2cc(OC)c(OC)c(OC)c2)C1=O	127 to 128
O=C(O)C(=NOCc1ccc(F)cc1)c1csc(NC(=O)C(F)(F)F)n1	180 to 182
CCCCOP(=O)(CCCCC1(C(=O)NCC(F)(F)F)c2ccccc2-c2ccccc21)OCCCC	71 to 74
Cn1c(-c2ccc(Cl)cc2)c(C#N)c(Br)c1C(F)(F)F	126 to 129
Cc1c(C(C)(C)C(=O)O)nc2ccc(NCCCN3CCC(OC(c4ccccc4)c4ccccc4)CC3)nn12	219 to 220
O=C1c2ccccc2S(=O)(=O)N1CCCCN1CCC2(CC1)Cc1ccccc1O2	98 to 100
Nc1nc(C(=O)C(=O)O)cs1	> 200
N#CC(C#N)=C1C=C(c2ccsc2)S(=O)(=O)C(c2ccsc2)=C1	275 to 285
Clc1ccccc1OCC1(c2ccccc2)CCN(Cc2ccccc2)CCO1 (stereo unspecified)	114 to 115
COc1ccc(N2CCOP(=O)(Oc3ccccc3)OCC2)cc1	124 to 126
CC1(C)CC(=O)C1(Br)CC(Br)(Br)Br (stereo unspecified)	61 to 63
N#Cc1c(N2CCN(C(=O)c3ccc(C(F)(F)F)cc3)CC2)c2ccccc2n(Cc2ccc(F)cc2)c1=O	181 to 185
